We go through one molecule from patent publication US6516294B1, “Nuclear receptor for 1α,25-dihydroxyvitamin D3 useful for selection of vitamin D3 ligands and a method therefor” (The Regents of the University of California, priority 1999, dated 2003).

Test [1] relates to osteocalcin promoter. In words: Transactivation of the osteocalcin promoter. The format is cell-based. Particulars: more potent than 1α,25(OH)2D3. An excerpt: (§1) One striking ligand-receptor structure-function relationship for 1α,25(OH)2D3 analogs relates to the chiral center at carbon 20 (see FIG. 7A) of the steroid side chain. The 20-epi analogs are 100-10,000 times more transcriptionally potent than the natural hormone 1α,25(OH)2D3, even though their affinity for the VDR is not greater. It is also known that the side chain of 20-normal versus 20-epi analogs of 1α,25(OH)2D3 is able to access different regions of three-dimensional space around the C/D ring. […] Med. Chem. Lett., 3:1799 (1998).
The seemingly benign structural change of the ligand from a 20-normal to 20-epi 1α,25(OH)2D3 results in a new conformational change in the VDR as assessed by trypsin sensitivity. This conformational change is believed to reflect an altered orientation of helix 12. Thus a VDR with a 20-epi ligand has an enhanced dimerization with RXR, resulting in increased transactivation of the osteocalcin promoter.
(§2) The problem of docking in the VDR LBD a unique analog of 1α,25(OH)2D3 that has a second side chain attached to carbon 20, such as Gemini [21-(3′-hydroxy-3-methylbutyl)-1α,25(OH)2D3], was also evaluated. Thus, Gemini has both a 20-normal and a 20-epi side chain. […] This conclusion is also consistent both with the proposal that the ligand enters the VDR LBD leading with its A-ring and with the unique trypsin sensitivity of a VDR LBD-Gemini complex.

Test [2] has as its target T1, VDR (Homo sapiens, UniProt P11473).
T1 sequence (P11473 1-427): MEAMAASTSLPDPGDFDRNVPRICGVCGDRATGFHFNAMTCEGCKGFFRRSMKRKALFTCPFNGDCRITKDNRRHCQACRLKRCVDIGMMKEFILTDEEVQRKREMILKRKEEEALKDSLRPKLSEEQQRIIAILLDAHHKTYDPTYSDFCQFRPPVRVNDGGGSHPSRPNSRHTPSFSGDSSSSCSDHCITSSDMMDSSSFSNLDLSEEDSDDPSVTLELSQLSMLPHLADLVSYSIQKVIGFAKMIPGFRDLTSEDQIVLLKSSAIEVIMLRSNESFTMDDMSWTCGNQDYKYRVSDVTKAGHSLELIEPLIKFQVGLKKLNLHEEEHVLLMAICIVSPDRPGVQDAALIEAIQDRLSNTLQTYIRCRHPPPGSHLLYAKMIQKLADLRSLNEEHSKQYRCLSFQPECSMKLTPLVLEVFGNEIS
Kind of test: Binding to the VDR relative to 1α,25(OH)2D3. The conditions noted are these: 1α,25(OH)2D3 as reference.
Description: as §1, §2

For the molecule `C=C1/C(=C\C=C2/CCC[C@]3(C)[C@@H](C(CCCC(C)(C)O)CCCC(C)(C)O)CC[C@@H]23)C[C@H](O)C[C@H]1O` [Gemini, 21-(3′-hydroxy-3-methylbutyl)-1α,25(OH)2D3], the “potency relative to 1α,25(OH)2D3, transactivation of the osteocalcin promoter” value in test [1] is recorded as 13 -fold. In addition, the “binding to the VDR relative to 1α,25(OH)2D3” value in test [2] is reported as 40%.
